Test results from patent US10344019B2 (priority 2010, dated 2019).
Read-outs that look alike come from different tables or passages of the source.

Tests used:
Type in all cases: cell-based
[1] = system: HCV 4a Rluc cells (NS5A chimeric genotype 1b Con1 replicon with genotype 4a NS5A gene); experiment: microbe, parasite or virus in culture; conditions: Hepatitis C virus, read-out: 4a
Summary of the method: (§1)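 Replicon cells stably carrying the listed RLuc-encoding dicistronic replicons were seeded and treated with DMSO serial dilutions of compound (10 mM stocks) diluted into culture medium. After 72 h, cells were lysed and Renilla luciferase activity measured. EC50 was derived by non-linear regression.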

[2] = system: HCV 2b Rluc cells (NS5A chimeric genotype 2a JFH-1 replicon with genotype 2b MD2b-1 NS5A gene, M31 present); experiment: microbe, parasite or virus in culture; conditions: Hepatitis C virus, read-out: 2b
Summary of the method: as §1

[3] = system: HCV 1b RLuc cells (dicistronic genotype 1b Con1 replicon, RLuc reporter); experiment: microbe, parasite or virus in culture; conditions: Hepatitis C virus, read-out: 1b (nM)
Summary of the method: as §1

[4] = system: HCV 2a JFH-1 Rluc cells (dicistronic genotype 2a JFH-1 replicon, RLuc reporter); experiment: microbe, parasite or virus in culture; conditions: Hepatitis C virus, read-out: 2a JFH
Summary of the method: as §1

[5] = system: HCV 3a RLuc cells (NS5A chimeric genotype 1b Con1 replicon with consensus genotype 3a NS5A gene); experiment: microbe, parasite or virus in culture; conditions: Hepatitis C virus
Summary of the method: as §1

[6] = system: HCV 1a RLuc cells (dicistronic genotype 1a H77 replicon, RLuc reporter); experiment: microbe, parasite or virus in culture; conditions: Hepatitis C virus, read-out: 1a
Summary of the method: as §1

[7] = system: HCV 2a Rluc cells (NS5A chimeric genotype 2a JFH-1 replicon with genotype 2a J6 strain NS5A gene, M31 present); experiment: HCV replicon reporter assay, genotype 2a J6 (M31 present); conditions: Hepatitis C virus, read-out: 2a J6
Summary of the method: as §1

[8] = 72 h, Table 1, genotype 2a JFH-1 replicon, 72 hours
[9] = read-out: 3a, Table 1, genotype 3a NS5A chimeric replicon
[10] = 72 h, Table 1, genotype 1a H77 replicon, 72 hours
[11] = read-out: 3a, genotype 3a replicon
[12] = genotype 2a JFH-1 RLuc replicon
[13] = read-out: 3a, genotype 3a NS5A chimeric replicon
[14] = genotype 2a JFH-1 replicon, RLuc reporter
[15] = read-out: 3a, genotype 3a NS5A chimeric 1b Con1 replicon
[16] = genotype 1a H77 replicon, RLuc reporter

Row | SMILES | EC50 [1] [pM] | EC50 [2] [pM] | EC50 ([3]; 72 h) [nM] | EC50 [4, 8] [pM] | EC50 [5, 9] [pM] | EC50 [6, 10] [pM] | EC50 [7] [pM] | EC50 [3] [nM] | EC50 ([4]; genotype 2a JFH-1 replicon) [pM] | EC50 [5, 11] [pM] | EC50 ([6]; genotype 1a replicon) [pM] | EC50 [4, 12] [pM] | EC50 [5, 13] [pM] | EC50 ([6]; genotype 1a H77 RLuc replicon) [pM] | EC50 [4, 14] [pM] | EC50 [5, 15] [pM] | EC50 [6, 16] [pM]
1 | COC(=O)N[C@H](C(=O)N1CCC[C@H]1c1ncc(-c2ccc3c(c2)COc2c-3ccc3cc(-c4cnc([C@@H]5CCCN5C(=O)[C@H](NC(=O)OC)c5ccccc5)[nH]4)ccc23)[nH]1)C(C)C [Example 2] | 1 to 990 | > 44000 | 0.005 | 1 to 999 | 1 to 990 | 1 to 999 | > 44000 |  |  |  |  |  |  |  |  |  | 
2 | COC[C@H]1C[C@@H](c2nc3ccc4cc(-c5ccc6c(ccc7nc([C@@H]8C[C@H]9C[C@H]9N8C(=O)[C@@H](NC(=O)OC)C(C)C)[nH]c76)c5)ccc4c3[nH]2)N(C(=O)[C@@H](NC(=O)OC)C(C)C)C1 [Example 471] | 1 to 990 | 1000 to 44000 |  |  |  |  | 1 to 999 | 0.015 | 1 to 999 | 1 to 990 | 1 to 999 |  |  |  |  |  | 
3 | COC(=O)N[C@@H](C(=O)N1CCC[C@H]1c1nc(Cl)c(-c2cc3c4c(c2)OCc2cc(-c5[nH]c([C@@H]6CCCN6C(=O)[C@H](NC(=O)OC)c6ccccc6)nc5Cl)cc(c2-4)OC3)[nH]1)c1ccccc1 [Example 421] | 1 to 990 | 1 to 999 |  |  |  |  | 1 to 999 | 0.041 | 1 to 999 | 1 to 990 | 1 to 999 |  |  |  |  |  | 
4 | COC(=O)N[C@H](C(=O)N1CC2(C[C@H]1c1nc3ccc4cc(-c5ccc6c(ccc7nc([C@@H]8C[C@H]9C[C@H]9N8C(=O)[C@H](NC(=O)OC)c8ccccc8)[nH]c76)c5)ccc4c3[nH]1)OCCO2)C(C)C [Example 356] | 1 to 990 | 1 to 999 |  |  |  |  | 1 to 999 | 0.022 | 1 to 999 | 1 to 990 | 1 to 999 |  |  |  |  |  | 
5 | COC(=O)N[C@H](C(=O)N1[C@@H]2C[C@@H]2C[C@H]1c1nc(Cl)c(-c2ccc(-c3ccc4c(ccc5nc([C@@H]6C[C@H]7C[C@H]7N6C(=O)[C@@H](NC(=O)OC)C(C)C)[nH]c54)c3)cc2F)[nH]1)C(C)C [Example 395] | 1 to 990 | > 44000 |  |  |  |  | > 44000 | 0.004 | 1 to 999 | 1 to 990 | 1 to 999 |  |  |  |  |  | 
6 | COC(=O)N[C@H](C(=O)N1CCC[C@H]1c1ncc(-c2ccc3c4c(ccc3c2)-c2ccc(-c3cnc([C@@H]5CCCN5C(=O)[C@H](NC(=O)OC)c5ccccc5)[nH]3)cc2CO4)[nH]1)C1CCOCC1 [Example 13] | 1 to 990 | 1 to 999 | 0.015 | 1 to 999 | 1 to 990 | 1 to 999 | 1000 to 44000 |  |  |  |  |  |  |  |  |  | 
7 | CNC(=O)N[C@@H](C(=O)N1CCC[C@H]1c1ncc(-c2cc3c4c(c2)OCc2cc(-c5cnc([C@@H]6CCCN6C(=O)[C@H](NC(=O)NC)c6ccccc6)[nH]5)cc(c2-4)OC3)[nH]1)c1ccccc1 [Example 447] | 1 to 990 | 1 to 999 |  |  |  |  | 1 to 999 | 2.05 | 1 to 999 | 1 to 990 | 1000 to 44000 |  |  |  |  |  | 
8 | COC[C@H]1C[C@@H](c2ncc(-c3ccc(-c4ccc5c(ccc6nc([C@@H]7CCCN7C(=O)[C@H](NC(=O)OC)c7ccccc7)[nH]c65)c4)cc3)[nH]2)N(C(=O)[C@@H](NC(=O)OC)C(C)C)C1 [Example 442] | 1 to 990 | 1 to 999 |  |  |  |  | 1 to 999 | 0.029 | 1 to 999 | 1 to 990 | 1 to 999 |  |  |  |  |  | 
9 | COC(=O)N[C@@H](C(=O)N1[C@@H]2C[C@@H]2C[C@H]1c1ncc(-c2cc3c4c(c2)OCc2cc(-c5cnc([C@@H]6C[C@H]7C[C@H]7N6C(=O)[C@H](NC(=O)OC)c6ccccc6)[nH]5)cc(c2-4)OC3)[nH]1)c1ccccc1 [Example 496] | 1 to 990 | 1 to 999 |  |  |  |  | 1 to 999 | 0.011 |  |  |  | 1 to 999 | 1 to 990 | 1 to 999 |  |  | 
10 | CC(C)[C@@H](C(=O)N[C@@H](C(=O)N1CCC[C@H]1c1ncc(-c2cc3c4c(c2)OCc2cc(-c5cnc([C@@H]6CCCN6C(=O)[C@H](NC(=O)[C@H](C(C)C)N(C)C)c6ccccc6)[nH]5)cc(c2-4)OC3)[nH]1)c1ccccc1)N(C)C [Example 484] | 1 to 990 | > 44000 |  |  |  |  | > 44000 | 0.953 | 1 to 999 | 1 to 990 | > 44000 |  |  |  |  |  | 
11 | COC(=O)N[C@H](C(=O)N1[C@@H]2CC[C@@H](C2)[C@H]1c1ncc(-c2ccc(-c3ccc4c(ccc5nc([C@@H]6C[C@H]7C[C@H]7N6C(=O)[C@H](NC(=O)OC)c6ccccc6)[nH]c54)c3)cc2)[nH]1)C(C)C [Example 379] | 1 to 990 | > 44000 |  |  |  |  | 1 to 999 | 0.009 | 1 to 999 | 1 to 990 | 1 to 999 |  |  |  |  |  | 
12 | COC(=O)N[C@H](C(=O)N1CCC[C@H]1c1nc2ccc3cc(-c4ccc(-c5[nH]c([C@@H]6[C@H]7CC[C@H](C7)N6C(=O)[C@@H](NC(=O)OC)C(C)C)nc5Cl)cc4)ccc3c2[nH]1)C(C)C [Example 388] | 1 to 990 | > 44000 |  |  |  |  | > 44000 | 0.008 | 1 to 999 | 1 to 990 | 1 to 999 |  |  |  |  |  | 
13 | COC[C@H]1C[C@@H](c2nc3ccc4cc(-c5ccc6c(ccc7nc([C@@H]8C[C@H]9C[C@H]9N8C(=O)[C@@H](NC(=O)OC)C(C)C)[nH]c76)c5)ccc4c3[nH]2)N(C(=O)[C@H](NC(=O)OC(C)(C)C)c2ccccc2)C1 [Example 497] | 1 to 990 | 1 to 999 |  |  |  |  | 1 to 999 | 0.008 |  |  |  | 1 to 999 | 1 to 990 | 1 to 999 |  |  | 
14 | CC(C)[C@H](NC(=O)OC(C)(C)C)C(=O)N[C@@H](C(=O)N1CCC[C@H]1c1ncc(-c2cc3c4c(c2)OCc2cc(-c5cnc([C@@H]6CCCN6C(=O)[C@H](NC(=O)[C@@H](NC(=O)OC(C)(C)C)C(C)C)c6ccccc6)[nH]5)cc(c2-4)OC3)[nH]1)c1ccccc1 [Example 485] | 1 to 990 | > 44000 |  |  |  |  | > 44000 | 0.17 | 1 to 999 | 1 to 990 | 1000 to 44000 |  |  |  |  |  | 
15 | COC(=O)N[C@H](C(=O)N1CCC[C@H]1c1nc2ccc3c(F)c(-c4ccc5c(ccc6nc([C@@H]7CCCN7C(=O)[C@@H](NC(=O)OC)C(C)C)[nH]c65)c4F)ccc3c2[nH]1)C(C)C [Example 457] | 1 to 990 | > 44000 |  |  |  |  | > 44000 | 0.009 | 1 to 999 | 1 to 990 | 1 to 999 |  |  |  |  |  | 
16 | O=C(N[C@@H](C(=O)N1CCC[C@H]1c1ncc(-c2cc3c4c(c2)OCc2cc(-c5cnc([C@@H]6CCCN6C(=O)[C@H](NC(=O)C6CCOCC6)c6ccccc6)[nH]5)cc(c2-4)OC3)[nH]1)c1ccccc1)C1CCOCC1 [Example 490] | 1 to 990 | 1 to 999 |  |  |  |  | 1 to 999 | 0.989 |  |  |  | 1 to 999 | 1 to 990 | 1000 to 44000 |  |  | 
17 | COC(=O)N[C@H](C(=O)N1CC2(C[C@H]1c1nc3ccc4cc(-c5ccc6c(ccc7nc([C@@H]8CCCN8C(=O)[C@H](NC(=O)OC)c8ccccc8)[nH]c76)c5)ccc4c3[nH]1)OCCO2)C(C)C [Example 323] | 1 to 990 | 1 to 999 |  |  |  |  | 1 to 999 | 0.043 | 1 to 999 | 1 to 990 | 1 to 999 |  |  |  |  |  | 
18 | COC(=O)N[C@H](C(=O)N1CCC[C@H]1c1ncc(-c2ccc3cc(-c4ccc(-c5cnc([C@@H]6C[C@H](F)CN6C(=O)[C@H](NC(=O)OC)c6ccccc6)[nH]5)cc4)ccc3c2)[nH]1)C(C)C [Example 129] | 1 to 990 | > 44000 |  |  |  |  | > 44000 | 0.007 |  |  |  |  |  |  | 1 to 999 | 1 to 990 | 1 to 999
19 | CCO[C@H]1C[C@@H](c2ncc(-c3ccc(-c4ccc5cc(-c6cnc([C@@H]7CCCN7C(=O)[C@@H](NC(=O)OC)C(C)C)[nH]6)ccc5c4)cc3)[nH]2)N(C(=O)[C@H](NC(=O)OC)c2ccccc2)C1 [Example 157] | 1 to 990 | 1000 to 44000 |  |  |  |  | > 44000 | 0.008 |  |  |  |  |  |  | 1 to 999 | 1000 to 4990 | 1 to 999
20 | COC(=O)N[C@H](C(=O)N1CCC[C@H]1c1ncc(-c2ccc3c(c2)COc2cc4c(ccc5nc([C@@H]6C[C@H]7C[C@H]7N6C(=O)[C@@H](NC(=O)OC)C(C)C)[nH]c54)cc2-3)[nH]1)C(C)C [Example 518] | 1 to 990 | 1 to 999 |  |  |  |  | 1000 to 44000 | 0.01 |  |  |  | 1 to 999 | 1 to 990 | 1 to 999 |  |  | 
